{
  "source": "patent US20260069584A1",
  "about": "“METHODS OF TREATING CHRONIC MYELOID LEUKEMIA USING THE TYROSINE KINASE INHIBITOR VODOBATINIB” (Sun Pharma Advanced Research Company Ltd., priority 2022, published 2026)",
  "key": {"[1]": {"test": "Single ascending dose (SAD) study in healthy male volunteers: pharmacokinetics", "assay_type": "in vivo, human", "conditions": "for Dose proportionality, Slope Estimate: 6 to 24 mg, n 18, power model; for Dose proportionality, Coefficient of determination / Dose proportionality, Intercept Estimate: n 18", "method": "Initially in the single ascending dose (SAD) study the safety, tolerability, and pharmacokinetics of the compound of Formula I at 6 mg, 12 mg, and 24 mg doses in healthy human male volunteers were evaluated. In this study, the healthy male volunteers within the mean age group of 28.7-35 years were orally administered an investigational medicinal product (IMP) or a placebo after an overnight fast (of at least 8 hours). The IMP used in this study was a hard gelatin capsule comprising the compound of Formula I of varying sizes containing either 6 mg or 24 mg of the compound of Formula I and the excipients. For the 12 mg dose, two capsules of 6 mg were used. The placebo formulation containing the excipients matched the compound of Formula I capsules in shape, size, and color. […] The median time of maximum concentration (Tmax: 2.5-3 hours, across dose range) was independent of the dose level. Dose-related increases in exposure (AUC and Cmax) were observed. […] The inter-subject variability, for the PK parameters, was generally higher in the 12 mg dose group when compared with that in the 6 mg and 24 mg dose groups (Table 07, and FIG. 1)\nReferring to FIG. 1, The dose proportionality assessment using ANCOVA was assessed in the PK analysis set. […] The estimates for the slope for all exposure parameters were between 0.9833 and 1.016."}, "[2]": {"test": "in vivo", "assay_type": "in vivo", "conditions": "14-day study"}, "[3]": {"test": "clinical", "conditions": "human, in vivo, po", "quoted_text": "A±5 minutes window permitted till 4 hours PK sample collection. A±10 minutes window permitted for subsequent PK sample collection. Days 3, 8, 15, and 22 of Cycle 1:30 (±10) minutes Predose only. […] A #5 minutes window permitted till 4 hours PK sample collection. A #10 minutes window permitted for subsequent PK sample collection. Days 8, 15, and 22 of Cycle 2:30 (±10) minutes Predose only. Cycle 3 onwards: Predose samples on Day 1.\nPharmacokinetic analysis was performed using non-compartmental analysis. The actual elapsed time from dose was used in the final PK parameter calculations. Plasma concentrations and PK parameters for the compound of Formula I were listed and summarized by dose cohort using descriptive statistics (n, mean, standard deviation, minimum, median, and maximum). Geometric mean and geometric coefficient of variation were calculated for PK parameters. Additionally, mean concentration profiles by dose cohort and cycle were illustrated. Dose proportionality of Cmax and AUC(0-24) was assessed graphically for Cycle 1 and Cycle 2. Dose proportionality was statistically evaluated using the power model approach, whenever the number of patients was at least 3 for a given cohort. Time to steady-state (Ctrough) was evaluated graphically. Differences among dose levels in CL/F and V/F, and dose-normalized Cmax and AUC(0-24) were explored using an analysis of variance.\nThe PK parameters for the study were summarized by treatment using descriptive (N, n, mean, standard deviation [SD], coefficient of variation [CV] % minimum, median, maximum, geometric mean and CV %) statistics, except for Tmax. For Tmax, the number of subjects, minimum, median, and maximum are reported."}, "[4]": {"test": "Oral toxicity study in Wistar Rats", "conditions": "rat, in vivo"}, "[5]": {"conditions": "male, human, plasma, oral, 6 mg (N = 6), mean"}, "[6]": {"conditions": "male, human, plasma, oral, 12 mg (N = 6), mean"}, "[7]": {"conditions": "male, human, plasma, oral, 24 mg (N = 6), mean"}},
  "note": "Read-outs that look alike come from different tables or passages of the source.",
  "data": [
    {"smiles": "Cc1ccc(C(=O)NNC(=O)c2c(C)cccc2Cl)cc1C#Cc1cnc2ccccc2c1", "note": "[compound of Formula I, N′-(2-chloro-6-methylbenzoyl)-4-methyl-3-[2-(3-quinolyl)ethynyl]-benzohydrazide]", "values": [
      {"measurement": "CL/F", "setting": "[1]; 6 mg (N = 6), geometric mean", "result": 3.708, "unit": "L/h"},
      {"measurement": "AUC(0-inf)/D", "setting": "[1]; 6 mg (N = 6), mean", "result": "289 [ng/mL × hour]/mg"},
      {"measurement": "CL/F", "setting": "[1]; 12 mg (N = 6), geometric mean", "result": 4.956, "unit": "L/h"},
      {"measurement": "AUC(0-inf)/D", "setting": "[1]; 12 mg (N = 6), mean", "result": "230.3 [ng/mL × hour]/mg"},
      {"measurement": "Tmax", "setting": "[1]; 12 mg (N = 6), median", "result": 3, "unit": "h"},
      {"measurement": "CL/F", "setting": "[1]; 24 mg (N = 6), geometric mean", "result": 3.8, "unit": "L/h"},
      {"measurement": "AUC(0-inf)/D", "setting": "[1]; 24 mg (N = 6), mean", "result": "274.3 [ng/mL × hour]/mg"},
      {"measurement": "Tmax", "setting": "[1]; 24 mg (N = 6), median", "result": 2.75, "unit": "h"},
      {"measurement": "Dose proportionality, Slope Estimate", "setting": "[1]; AUC(0-inf) (ng*h/mL)", "result": 0.9833},
      {"measurement": "Dose proportionality, Coefficient of determination", "setting": "[1]; AUC(0-inf) (ng*h/mL)", "result": 0.6145},
      {"measurement": "Dose proportionality, Intercept Estimate", "setting": "[1]; AUC(0-inf) (ng*h/mL)", "result": 5.534},
      {"measurement": "Dose proportionality, Slope Estimate", "setting": "[1]; AUC(0-last) (ng*h/mL)", "result": 1.016},
      {"measurement": "Dose proportionality, Coefficient of determination", "setting": "[1]; AUC(0-last) (ng*h/mL)", "result": 0.6425},
      {"measurement": "Dose proportionality, Intercept Estimate", "setting": "[1]; AUC(0-last) (ng*h/mL)", "result": 5.389},
      {"measurement": "Dose proportionality, Slope Estimate", "setting": "[1]; Cmax (ng/mL)", "result": 0.9884},
      {"measurement": "Dose proportionality, Coefficient of determination", "setting": "[1]; Cmax (ng/mL)", "result": 0.6832},
      {"measurement": "Dose proportionality, Intercept Estimate", "setting": "[1]; Cmax (ng/mL)", "result": 3.470},
      {"measurement": "apparent systemic clearance (CL/F)", "setting": "[1]; across dose range 6, 12, 24 mg", "result": "3.708 to 4.956", "unit": "L/h"},
      {"measurement": "Vd/F", "setting": "[1]; male, human, plasma, oral, 6 mg, 6 mg (N = 6), geometric mean, read-out: Vz/F", "result": 91.6, "unit": "L"},
      {"measurement": "half-life", "setting": "[1]; male, human, plasma, oral, 6 mg, 6 mg (N = 6), geometric mean, read-out: t1/2 (converted)", "result": 17.1, "unit": "h"},
      {"measurement": "AUC(0-t)", "setting": "[1]; male, human, plasma, oral, 6 mg, 6 mg (N = 6), mean, read-out: AUC(0-24)", "result": 1140, "unit": "ng·h/mL"},
      {"measurement": "AUC(0-t)", "setting": "[1]; male, human, plasma, oral, 6 mg, 6 mg (N = 6), mean, read-out: AUC(0-last)", "result": 1570, "unit": "ng·h/mL"},
      {"measurement": "Vd/F", "setting": "[1]; male, human, plasma, oral, 12 mg, 12 mg (N = 6), geometric mean, read-out: Vz/F", "result": 90.8, "unit": "L"},
      {"measurement": "half-life", "setting": "[1]; male, human, plasma, oral, 12 mg, 12 mg (N = 6), geometric mean, read-out: t1/2 (converted)", "result": 12.7, "unit": "h"},
      {"measurement": "AUC(0-t)", "setting": "[1]; male, human, plasma, oral, 12 mg, 12 mg (N = 6), mean, read-out: AUC(0-24)", "result": 1920, "unit": "ng·h/mL"},
      {"measurement": "AUC(0-t)", "setting": "[1]; male, human, plasma, oral, 12 mg, 12 mg (N = 6), mean, read-out: AUC(0-last)", "result": 2640, "unit": "ng·h/mL"},
      {"measurement": "Vd/F", "setting": "[1]; male, human, plasma, oral, 24 mg, 24 mg (N = 6), geometric mean, read-out: Vz/F", "result": 69.8, "unit": "L"},
      {"measurement": "half-life", "setting": "[1]; male, human, plasma, oral, 24 mg, 24 mg (N = 6), geometric mean, read-out: t1/2 (converted)", "result": 12.7, "unit": "h"},
      {"measurement": "AUC(0-t)", "setting": "[1]; male, human, plasma, oral, 24 mg, 24 mg (N = 6), mean, read-out: AUC(0-24)", "result": 4760, "unit": "ng·h/mL"},
      {"measurement": "AUC(0-t)", "setting": "[1]; male, human, plasma, oral, 24 mg, 24 mg (N = 6), mean, read-out: AUC(0-last)", "result": 6240, "unit": "ng·h/mL"},
      {"measurement": "AUC(0-t)", "setting": "[1]; male, human, plasma, oral, 24 mg, SAD study, read-out: maximum value of AUC(0-24)", "result": 6080, "unit": "ng·h/mL"},
      {"measurement": "half-life", "setting": "[1]; male, human, plasma, oral, 24 mg, across dose range 6, 12, 24 mg, read-out: apparent terminal half-life (t1/2)", "result": "12.7 to 17.1", "unit": "h"},
      {"measurement": "Vd/F", "setting": "[1]; male, human, plasma, oral, 24 mg, across dose range 6, 12, 24 mg, read-out: apparent volume of distribution (Vz/F)", "result": "69.8 to 91.6", "unit": "L"},
      {"measurement": "AUC(0-t)", "setting": "[1]; male, human, plasma, oral, 24 mg, highest dose level (24 mg), read-out: mean AUC(0-24)", "result": 4760, "unit": "ng·h/mL"},
      {"measurement": "AUC(0-inf)", "setting": "[1]; [5]", "result": 1740, "unit": "ng·h/mL"},
      {"measurement": "Cmax", "setting": "[1]; [5]", "result": 234, "unit": "ng/mL"},
      {"measurement": "Tmax", "setting": "[1]; male, human, plasma, oral, 6 mg (N = 6), median, read-out: tmax", "result": 2.5, "unit": "h"},
      {"measurement": "AUC(0-inf)", "setting": "[1]; [6]", "result": 2770, "unit": "ng·h/mL"},
      {"measurement": "Cmax", "setting": "[1]; [6]", "result": 285, "unit": "ng/mL"},
      {"measurement": "AUC(0-inf)", "setting": "[1]; [7]", "result": 6580, "unit": "ng·h/mL"},
      {"measurement": "Cmax", "setting": "[1]; [7]", "result": 909, "unit": "ng/mL"},
      {"measurement": "Tmax", "setting": "[1]; male, human, plasma, oral, across dose range 6, 12, 24 mg, read-out: median time of maximum concentration (Tmax)", "result": "2.5 to 3", "unit": "h"},
      {"measurement": "absorption after oral administration", "setting": "[1]; single dose 6 mg, 12 mg, or 24 mg", "result": "rapidly absorbed"},
      {"measurement": "dose up to which no mortality or severe clinical signs were observed", "setting": "[2]", "result": "≤ 625", "unit": "mg/kg/day"},
      {"measurement": "NOAEL at 14 days", "setting": "[2]; dog, in vivo", "result": 83, "unit": "mg/kg/day"},
      {"measurement": "Tmax", "setting": "[3]", "result": "1.5 to 2.5", "unit": "h"},
      {"measurement": "AUC(0-t)", "setting": "[3]; 204 mg", "result": 27500, "unit": "ng·h/mL"},
      {"measurement": "Cmax", "setting": "[3]; 204 mg", "result": 3310, "unit": "ng/mL"},
      {"measurement": "NOAEL", "setting": "[4]", "result": 100, "unit": "mg/kg/day"}
    ]}
  ]
}
